In US8202563B2, “Acidulate composition and methods for making and utilizing the same” (Clabber Girl Corporation, priority 2008, dated 2012):

Test system: microbial growth (mold)
Test: 6-month storage test of flour tortillas, visual signs of microbial growth
Conditions: flour tortillas with sodium propionate and potassium sorbate, acidulate 0.2832 weight %, stored at about 77° F., end of 6-month period
Description: The ingredients listed in Table 1 were combined at 100° F. The water and flour mixture was mixed for 2 minutes at a low speed with a dough hook. The dough was allowed to stand for 5 minutes and then divided into 50-gram balls that were heat pressed at 175° F. for 10 seconds. The raw tortillas were then baked on a griddle at 400° F. for 30 seconds on each side, and subsequently cooled.
Tortillas from each test batch were evaluated after baking for volume, eating quality, and microbial growth. Thereafter, tortilla specimens from of each batch were heat sealed in cellophane bags, bagged in ZIPLOCK® freezer pouches and stored at about 77° F. All test batches of tortilla samples were checked periodically for visual signs of microbial growth, volume reduction, and overall appearance over a 6-month period.

`O=C(O)/C=C/C(=O)O` [raw fumaric acid, fumaric acid] was tested. Which “visual signs of microbial growth / mold on tortillas” value did it give?
Its value is “visual signs of microbial growth, albeit to a lesser extent than the control tortillas”.
